In the data set the test system is CCRIS mutagenicity, Ames/micronucleus/aberration tests. Nature of the data set: CCRIS mutagenicity studies.
[1] abbreviates: Test System: AMES SALMONELLA TYPHIMURIUM, Strain/Indicator: TA98, Metabolic Activation: NONE, Method: STANDARD PLATE.
The mark [2] stands for this setting: Test System: AMES SALMONELLA TYPHIMURIUM, Strain/Indicator: TA100, Metabolic Activation: NONE, Method: STANDARD PLATE.
Setting [3] is: Test System: AMES SALMONELLA TYPHIMURIUM, Strain/Indicator: TA98, Metabolic Activation: NONE, Method: PREINCUBATION
Setting [4] is: Test System: AMES SALMONELLA TYPHIMURIUM, Strain/Indicator: TA100, Metabolic Activation: NONE, Method: PREINCUBATION

Drawing on PubChem BioAssay AID1259407 (Chemical Carcinogenesis Research Information System (CCRIS), 2018), this text covers mutagenic call for 7 compounds.

Activity calls are given as the source filed them. How the calls were made is not given here.

Take `CC(=O)c1cc2c(cc1C)C(C)(C)C(C)C2C(C)C` (stereo not given): the mutagenic call by setting is: (Test System: AMES SALMONELLA TYPHIMURIUM, Strain/Indicator: TA97, Metabolic Activation: NONE, Method: STANDARD PLATE) “inactive; negative”; (Test System: AMES SALMONELLA TYPHIMURIUM, Strain/Indicator: TA97, Metabolic Activation: RAT LIVER S-9, AROCLOR 1254, Method: STANDARD PLATE) “inactive; negative”; under setting [1], “inactive; negative”; (Test System: AMES SALMONELLA TYPHIMURIUM, Strain/Indicator: TA98, Metabolic Activation: RAT LIVER S-9, AROCLOR 1254, Method: STANDARD PLATE) “inactive; negative”; under setting [2], “inactive; negative”; (Test System: AMES SALMONELLA TYPHIMURIUM, Strain/Indicator: TA100, Metabolic Activation: RAT LIVER S-9, AROCLOR 1254, Method: STANDARD PLATE) “inactive; negative”. Also, the mutagenic call is “inactive; negative” (Test System: AMES SALMONELLA TYPHIMURIUM, Strain/Indicator: TA102, Metabolic Activation: NONE, Method: STANDARD PLATE) and “inactive; negative” (Test System: AMES SALMONELLA TYPHIMURIUM, Strain/Indicator: TA102, Metabolic Activation: RAT LIVER S-9, AROCLOR 1254, Method: STANDARD PLATE).
Consider `CC(O)c1cc2ccc3cccc4ccc(c1)c2c34` (stereo not given), for which, where the note is “Test System: AMES SALMONELLA TYPHIMURIUM, Strain/Indicator: TA98, Metabolic Activation: HUMAN, LIVER, CYTOSOL, PAPS, Method: PREINCUBATION”, the mutagenic call was “active; positive”.
Take `ClCc1c2ccccc2cc2c1ccc1ccccc12`: the mutagenic call under setting [2] was “active; positive”.
On to `CC(=O)O[C@H]1[C@H](OC23C=C(C)C4(CC4)C(C)(O)C2C(=O)C(C)(C)C3)O[C@H](CO)[C@@H](OC(=O)/C=C\c2ccc(O)cc2)[C@@H]1O` (stereo not given in full), for which the mutagenic call is, setting by setting: under setting [3], “active; positive”; under setting [4], “active; positive”.
On to `O[C@@H]1[C@@H]2O[C@@H]2c2c(cc3ccc4cccc5c6ccccc6c2c3c45)[C@H]1O`, for which the mutagenic call is, setting by setting: (Test System: AMES SALMONELLA TYPHIMURIUM, Strain/Indicator: TA97, Metabolic Activation: NONE, Method: PREINCUBATION (EXPOSURE IN MEDIUM WITH KCL)) “active; positive”; (Test System: AMES SALMONELLA TYPHIMURIUM, Strain/Indicator: TA97, Metabolic Activation: NONE, Method: PREINCUBATION (EXPOSURE IN MEDIUM WITHOUT KCL)) “active; positive”; (Test System: AMES SALMONELLA TYPHIMURIUM, Strain/Indicator: TA98, Metabolic Activation: NONE, Method: PREINCUBATION (EXPOSURE IN MEDIUM WITH KCL)) “active; positive”; (Test System: AMES SALMONELLA TYPHIMURIUM, Strain/Indicator: TA98, Metabolic Activation: NONE, Method: PREINCUBATION (EXPOSURE IN MEDIUM WITHOUT KCL)) “active; positive”; (Test System: AMES SALMONELLA TYPHIMURIUM, Strain/Indicator: TA100, Metabolic Activation: NONE, Method: PREINCUBATION (EXPOSURE IN MEDIUM WITH KCL)) “active; positive”; (Test System: AMES SALMONELLA TYPHIMURIUM, Strain/Indicator: TA100, Metabolic Activation: NONE, Method: PREINCUBATION (EXPOSURE IN MEDIUM WITHOUT KCL)) “active; positive”. The mutagenic call is “active; positive” (Test System: AMES SALMONELLA TYPHIMURIUM, Strain/Indicator: TA104, Metabolic Activation: NONE, Method: PREINCUBATION (EXPOSURE IN MEDIUM WITH KCL)); “active; positive” (Test System: AMES SALMONELLA TYPHIMURIUM, Strain/Indicator: TA104, Metabolic Activation: NONE, Method: PREINCUBATION (EXPOSURE IN MEDIUM WITHOUT KCL)); “active; positive” (Test System: CHINESE HAMSTER V-79, Strain/Indicator: V-79/6-THIOGUANINE, Metabolic Activation: NONE).
On to `Nc1nc2c(ncn2[C@@H]2C=C[C@H](CO)C2)c(=O)[nH]1`, for which the mutagenic call runs as follows: (Test System: AMES SALMONELLA TYPHIMURIUM, Strain/Indicator: TA98, Metabolic Activation: HAMSTER, LIVER, S-9, AROCLOR 1254 (10%), Method: STANDARD PLATE) “inactive; negative”; under setting [1], “inactive; negative”; (Test System: AMES SALMONELLA TYPHIMURIUM, Strain/Indicator: TA98, Metabolic Activation: RAT, LIVER, S-9, AROCLOR 1254 (10%), Method: STANDARD PLATE) “inactive; negative”; (Test System: AMES SALMONELLA TYPHIMURIUM, Strain/Indicator: TA100, Metabolic Activation: HAMSTER, LIVER, S-9, AROCLOR 1254 (10%), Method: STANDARD PLATE) “inactive; negative”; under setting [2], “inactive; negative”; (Test System: AMES SALMONELLA TYPHIMURIUM, Strain/Indicator: TA100, Metabolic Activation: RAT, LIVER, S-9, AROCLOR 1254 (10%), Method: STANDARD PLATE) “inactive; negative”. In addition, the mutagenic call is, setting by setting: (Test System: AMES SALMONELLA TYPHIMURIUM, Strain/Indicator: TA1535, Metabolic Activation: HAMSTER, LIVER, S-9, AROCLOR 1254 (10%), Method: STANDARD PLATE) “inactive; negative”; (Test System: AMES SALMONELLA TYPHIMURIUM, Strain/Indicator: TA1535, Metabolic Activation: NONE, Method: STANDARD PLATE) “inactive; negative”; (Test System: AMES SALMONELLA TYPHIMURIUM, Strain/Indicator: TA1535, Metabolic Activation: RAT, LIVER, S-9, AROCLOR 1254 (10%), Method: STANDARD PLATE) “inactive; negative”; (Test System: AMES SALMONELLA TYPHIMURIUM, Strain/Indicator: TA1537, Metabolic Activation: HAMSTER, LIVER, S-9, AROCLOR 1254 (10%), Method: STANDARD PLATE) “inactive; negative”; (Test System: AMES SALMONELLA TYPHIMURIUM, Strain/Indicator: TA1537, Metabolic Activation: NONE, Method: STANDARD PLATE) “inactive; negative”; (Test System: AMES SALMONELLA TYPHIMURIUM, Strain/Indicator: TA1537, Metabolic Activation: RAT, LIVER, S-9, AROCLOR 1254 (10%), Method: STANDARD PLATE) “inactive; negative”. Further, the mutagenic call (Test System: AMES SALMONELLA TYPHIMURIUM, Strain/Indicator: TA1538, Metabolic Activation: HAMSTER, LIVER, S-9, AROCLOR 1254 (10%), Method: STANDARD PLATE) is “inactive; negative”; the mutagenic call (Test System: AMES SALMONELLA TYPHIMURIUM, Strain/Indicator: TA1538, Metabolic Activation: NONE, Method: STANDARD PLATE) was “inactive; negative”; the mutagenic call (Test System: AMES SALMONELLA TYPHIMURIUM, Strain/Indicator: TA1538, Metabolic Activation: RAT, LIVER, S-9, AROCLOR 1254 (10%), Method: STANDARD PLATE) was “inactive; negative”; the mutagenic call (Test System: MOUSE LYMPHOMA, Strain/Indicator: L5178Y (TK+/TK-), Metabolic Activation: NONE, Method: SUSPENSION/PLATE) was “inactive; negative. reevaluation of results: inconclusive”; the mutagenic call (Test System: MOUSE LYMPHOMA, Strain/Indicator: L5178Y (TK+/TK-), Metabolic Activation: RAT, LIVER, S-9, AROCLOR 1254, Method: SUSPENSION/PLATE) is “active; positive; reevaluation of results: positive”; the mutagenic call (Test System: Mouse lymphoma, Strain/Indicator: L5178Y (tk+/tk-), Metabolic Activation: None, Method: Suspension/plate) is “inactive; negative”. Further, the mutagenic call (Test System: Mouse lymphoma, Strain/Indicator: L5178Y (tk+/tk-), Metabolic Activation: Rat, Liver, S-9, Aroclor 1254, Method: Suspension/plate) was “inactive; negative”.
With `O=C(O)C(=O)C(=O)O`, the mutagenic call by setting is: (Test System: AMES SALMONELLA TYPHIMURIUM, Strain/Indicator: TA97, Metabolic Activation: NONE, Method: PREINCUBATION) “inactive; negative”; (Test System: AMES SALMONELLA TYPHIMURIUM, Strain/Indicator: TA97, Metabolic Activation: RAT, LIVER, S-9, PHENOBARBITAL AND 5,6-BENZOFLAVONE, Method: PREINCUBATION) “inactive; negative”; under setting [3], “inactive; negative”; (Test System: AMES SALMONELLA TYPHIMURIUM, Strain/Indicator: TA98, Metabolic Activation: RAT, LIVER, S-9, PHENOBARBITAL AND 5,6-BENZOFLAVONE, Method: PREINCUBATION) “inactive; negative”; under setting [4], “inactive; negative”; (Test System: AMES SALMONELLA TYPHIMURIUM, Strain/Indicator: TA100, Metabolic Activation: RAT, LIVER, S-9, PHENOBARBITAL AND 5,6-BENZOFLAVONE, Method: PREINCUBATION) “inactive; negative”. For the same compound, the mutagenic call was “inactive; negative” (Test System: AMES SALMONELLA TYPHIMURIUM, Strain/Indicator: TA102, Metabolic Activation: NONE, Method: PREINCUBATION); “inactive; negative” (Test System: AMES SALMONELLA TYPHIMURIUM, Strain/Indicator: TA102, Metabolic Activation: RAT, LIVER, S-9, PHENOBARBITAL AND 5,6-BENZOFLAVONE, Method: PREINCUBATION); “inactive; negative” (Test System: AMES SALMONELLA TYPHIMURIUM, Strain/Indicator: TA104, Metabolic Activation: NONE, Method: PREINCUBATION); “inactive; negative” (Test System: AMES SALMONELLA TYPHIMURIUM, Strain/Indicator: TA104, Metabolic Activation: RAT, LIVER, S-9, PHENOBARBITAL AND 5,6-BENZOFLAVONE, Method: PREINCUBATION).
